Test results published in ChEMBL document CHEMBL1140428, “Human P2Y(6) receptor: molecular modeling leads to the rational design of a novel agonist based on a unique conformational preference” (J Med Chem, 2005).

Target: P2Y purinoceptor 6 (Homo sapiens, UniProt Q15077)
Test: Stimulation of phospholipase C in 1321N1 astrocytoma cells transfected with human P2Y6 receptor; call rule not given here
Assay type: cell-based

Sequence of P2Y purinoceptor 6 (Q15077 whole entry): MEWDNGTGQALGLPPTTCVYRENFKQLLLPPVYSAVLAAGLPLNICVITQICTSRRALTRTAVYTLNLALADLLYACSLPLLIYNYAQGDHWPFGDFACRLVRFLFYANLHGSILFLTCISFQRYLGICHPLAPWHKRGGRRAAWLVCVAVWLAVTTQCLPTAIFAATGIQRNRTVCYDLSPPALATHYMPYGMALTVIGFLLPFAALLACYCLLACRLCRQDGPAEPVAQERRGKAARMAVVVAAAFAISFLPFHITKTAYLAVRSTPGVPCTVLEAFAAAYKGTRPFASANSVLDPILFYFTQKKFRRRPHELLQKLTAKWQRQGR

Compound	EC50 (read-out: EC50) [µM]	EC50
O=c1ccn([C@@]23C[C@H](O)[C@@H](COP(=O)(O)OP(=O)(O)O)[C@@H]2C3)c(=O)[nH]1	0.23	–
O=c1ccn([C@H]2[C@H](O)[C@H](O)[C@@]3(COP(=O)(O)OP(=O)(O)O)C[C@H]23)c(=O)[nH]1	–	Not Active
O=c1ccn([C@@H]2O[C@H](COP(=O)(O)OP(=O)(O)O)[C@@H](O)[C@H]2O)c(=O)[nH]1 [URIDINE_DIPHOSPHATE]	0.086	–
O=c1ccn([C@H]2C[C@H](O)[C@@H](COP(=O)(O)OP(=O)(O)O)O2)c(=O)[nH]1	1.72	–
